According to ChEMBL document CHEMBL4507273 (2021):

Columns and labels:
[1] = molecular target: NUAK family SNF1-like kinase 1 (Homo sapiens) (UniProt O60285); settings: Compound concentration 1000.0 nM
[2] = molecular target: Serine/threonine-protein kinase D1 (Homo sapiens) (UniProt Q15139); settings: Compound concentration 1000.0 nM
[3] = molecular target: Phosphatidylinositol 3-kinase C2 domain-containing subunit gamma (Homo sapiens) (UniProt O75747); settings: Compound concentration 1000.0 nM
[4] = molecular target: T1, 5-hydroxytryptamine receptor 2C (Homo sapiens, UniProt P28335); assay: GPCRScan assay: inhibition of 5-HT2C; set-up: radioligand conc. used [nm] 1.0 – 2.5, parental cells HEK T
T1 sequence (P28335 whole entry): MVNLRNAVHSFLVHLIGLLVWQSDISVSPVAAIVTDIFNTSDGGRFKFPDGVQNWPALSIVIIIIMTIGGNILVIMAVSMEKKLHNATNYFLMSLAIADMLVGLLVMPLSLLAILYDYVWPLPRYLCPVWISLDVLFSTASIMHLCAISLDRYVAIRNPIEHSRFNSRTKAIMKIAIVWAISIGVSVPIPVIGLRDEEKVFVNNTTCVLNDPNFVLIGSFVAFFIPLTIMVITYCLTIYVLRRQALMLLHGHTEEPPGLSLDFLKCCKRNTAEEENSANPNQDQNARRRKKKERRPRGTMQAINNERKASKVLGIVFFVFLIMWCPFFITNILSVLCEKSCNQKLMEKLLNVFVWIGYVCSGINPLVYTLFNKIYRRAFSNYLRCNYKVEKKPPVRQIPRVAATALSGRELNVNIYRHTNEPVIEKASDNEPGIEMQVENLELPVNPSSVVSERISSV

[5] = molecular target: Serine/threonine-protein kinase SBK1 (Homo sapiens) (UniProt Q52WX2); settings: Compound concentration 1000.0 nM
[6] = molecular target: Serine/threonine-protein kinase WNK2 (Homo sapiens) (UniProt Q9Y3S1); settings: Compound concentration 1000.0 nM
[7] = molecular target: Tyrosine-protein kinase TXK (Homo sapiens) (UniProt P42681); settings: Compound concentration 1000.0 nM
[8] = molecular target: Dual specificity protein kinase TTK (Homo sapiens) (UniProt P33981); settings: Compound concentration 1000.0 nM
[9] = molecular target: Mitogen-activated protein kinase kinase kinase 7 (Homo sapiens) (UniProt O43318); settings: Compound concentration 1000.0 nM
[10] = molecular target: T2, 5-hydroxytryptamine receptor 2B (Homo sapiens, UniProt P41595); settings: Compound concentration 10.0 uM
T2 sequence (P41595 whole entry): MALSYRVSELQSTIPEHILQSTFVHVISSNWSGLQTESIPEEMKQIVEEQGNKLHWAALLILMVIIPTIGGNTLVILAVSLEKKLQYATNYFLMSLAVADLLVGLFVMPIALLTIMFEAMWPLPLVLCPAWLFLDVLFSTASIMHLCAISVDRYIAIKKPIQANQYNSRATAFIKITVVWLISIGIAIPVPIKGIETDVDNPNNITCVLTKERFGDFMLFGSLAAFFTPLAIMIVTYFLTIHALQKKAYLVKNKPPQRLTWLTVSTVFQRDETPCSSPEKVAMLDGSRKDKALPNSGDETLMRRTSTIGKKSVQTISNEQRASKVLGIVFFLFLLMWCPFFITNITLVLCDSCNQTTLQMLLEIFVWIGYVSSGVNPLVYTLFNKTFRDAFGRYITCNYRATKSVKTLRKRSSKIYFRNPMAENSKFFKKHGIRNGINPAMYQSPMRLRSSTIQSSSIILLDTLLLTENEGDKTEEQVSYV

[11] = molecular target: Calcium/calmodulin-dependent protein kinase type 1 (Homo sapiens) (UniProt Q14012); settings: Compound concentration 1000.0 nM
[12] = molecular target: Ribosomal protein S6 kinase alpha-3 (Homo sapiens) (UniProt P51812); settings: Compound concentration 1000.0 nM
[13] = molecular target: Serine/threonine-protein kinase PAK 4 (Homo sapiens) (UniProt O96013); settings: Compound concentration 1000.0 nM
[14] = molecular target: Receptor tyrosine-protein kinase erbB-2 (Homo sapiens) (UniProt P04626); settings: Compound concentration 1000.0 nM
Chain of Receptor tyrosine-protein kinase erbB-2 (Homo sapiens) (P04626 whole entry): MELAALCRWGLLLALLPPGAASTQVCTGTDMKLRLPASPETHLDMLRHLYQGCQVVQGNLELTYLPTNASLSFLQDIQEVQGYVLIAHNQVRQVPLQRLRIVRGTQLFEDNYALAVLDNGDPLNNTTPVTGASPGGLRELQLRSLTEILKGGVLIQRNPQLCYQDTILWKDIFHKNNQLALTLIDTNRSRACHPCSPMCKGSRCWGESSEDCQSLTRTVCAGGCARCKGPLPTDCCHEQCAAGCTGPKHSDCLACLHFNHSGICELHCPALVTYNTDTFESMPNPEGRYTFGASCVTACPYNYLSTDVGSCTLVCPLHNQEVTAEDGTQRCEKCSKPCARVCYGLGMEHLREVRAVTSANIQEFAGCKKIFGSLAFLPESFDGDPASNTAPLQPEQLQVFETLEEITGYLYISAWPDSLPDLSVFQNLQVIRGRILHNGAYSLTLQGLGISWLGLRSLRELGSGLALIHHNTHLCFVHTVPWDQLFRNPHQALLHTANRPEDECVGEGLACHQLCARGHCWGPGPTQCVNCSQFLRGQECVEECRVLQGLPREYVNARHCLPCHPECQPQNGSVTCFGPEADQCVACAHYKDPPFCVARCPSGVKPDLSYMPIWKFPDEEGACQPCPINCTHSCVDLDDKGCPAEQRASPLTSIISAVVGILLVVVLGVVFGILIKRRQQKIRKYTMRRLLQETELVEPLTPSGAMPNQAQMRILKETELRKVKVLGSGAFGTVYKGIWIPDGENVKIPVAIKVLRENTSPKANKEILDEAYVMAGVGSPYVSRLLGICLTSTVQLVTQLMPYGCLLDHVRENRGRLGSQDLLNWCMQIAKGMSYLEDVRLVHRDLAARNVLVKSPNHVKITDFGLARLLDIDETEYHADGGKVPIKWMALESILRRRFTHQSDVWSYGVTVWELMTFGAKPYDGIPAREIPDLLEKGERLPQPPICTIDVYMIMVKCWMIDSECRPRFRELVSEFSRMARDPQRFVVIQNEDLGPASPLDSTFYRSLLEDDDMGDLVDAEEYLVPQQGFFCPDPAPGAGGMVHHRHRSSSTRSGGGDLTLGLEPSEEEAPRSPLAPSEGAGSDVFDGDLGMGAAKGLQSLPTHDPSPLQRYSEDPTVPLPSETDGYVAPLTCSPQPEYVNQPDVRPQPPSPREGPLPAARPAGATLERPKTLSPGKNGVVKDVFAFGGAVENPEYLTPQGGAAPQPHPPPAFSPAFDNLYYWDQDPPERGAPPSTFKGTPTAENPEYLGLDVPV

[15] = molecular target: High affinity nerve growth factor receptor (Homo sapiens) (UniProt P04629); settings: Compound concentration 1000.0 nM
Chain of High affinity nerve growth factor receptor (Homo sapiens) (P04629 33-796 limits assumed): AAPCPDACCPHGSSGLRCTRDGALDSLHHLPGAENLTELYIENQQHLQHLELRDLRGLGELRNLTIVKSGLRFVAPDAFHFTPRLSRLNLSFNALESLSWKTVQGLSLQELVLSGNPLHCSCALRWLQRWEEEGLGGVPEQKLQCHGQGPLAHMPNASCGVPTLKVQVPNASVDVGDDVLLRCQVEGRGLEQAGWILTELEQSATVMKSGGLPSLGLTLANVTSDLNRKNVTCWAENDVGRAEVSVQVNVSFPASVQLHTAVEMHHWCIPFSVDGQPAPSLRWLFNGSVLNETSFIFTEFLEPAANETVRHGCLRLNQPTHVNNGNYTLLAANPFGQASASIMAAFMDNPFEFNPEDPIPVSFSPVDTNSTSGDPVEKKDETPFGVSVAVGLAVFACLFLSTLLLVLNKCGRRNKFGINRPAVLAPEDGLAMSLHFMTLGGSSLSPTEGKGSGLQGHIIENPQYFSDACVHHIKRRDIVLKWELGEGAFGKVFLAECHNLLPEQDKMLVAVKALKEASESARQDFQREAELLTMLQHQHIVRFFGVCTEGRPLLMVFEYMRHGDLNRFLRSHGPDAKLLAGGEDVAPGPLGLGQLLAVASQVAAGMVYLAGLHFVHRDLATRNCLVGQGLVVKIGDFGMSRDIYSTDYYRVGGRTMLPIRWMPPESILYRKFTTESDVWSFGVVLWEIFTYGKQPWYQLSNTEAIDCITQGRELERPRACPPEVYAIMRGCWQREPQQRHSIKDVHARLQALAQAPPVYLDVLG

[16] = molecular target: Hormonally up-regulated neu tumor-associated kinase (Homo sapiens) (UniProt P57058); settings: Compound concentration 1000.0 nM
[17] = molecular target: Ephrin type-A receptor 1 (Homo sapiens) (UniProt P21709); settings: Compound concentration 1000.0 nM
[18] = molecular target: Mitogen-activated protein kinase kinase kinase 14 (Homo sapiens) (UniProt Q99558); settings: Compound concentration 1000.0 nM
[19] = molecular target: LIM domain kinase 1 (Homo sapiens) (UniProt P53667); settings: Compound concentration 1000.0 nM
[20] = molecular target: Mitogen-activated protein kinase 8 (Homo sapiens) (UniProt P45983); settings: Compound concentration 1000.0 nM
[21] = molecular target: Serine/threonine-protein kinase 16 (Homo sapiens) (UniProt O75716); settings: Compound concentration 1000.0 nM
Chain of Serine/threonine-protein kinase 16 (Homo sapiens) (O75716 whole entry): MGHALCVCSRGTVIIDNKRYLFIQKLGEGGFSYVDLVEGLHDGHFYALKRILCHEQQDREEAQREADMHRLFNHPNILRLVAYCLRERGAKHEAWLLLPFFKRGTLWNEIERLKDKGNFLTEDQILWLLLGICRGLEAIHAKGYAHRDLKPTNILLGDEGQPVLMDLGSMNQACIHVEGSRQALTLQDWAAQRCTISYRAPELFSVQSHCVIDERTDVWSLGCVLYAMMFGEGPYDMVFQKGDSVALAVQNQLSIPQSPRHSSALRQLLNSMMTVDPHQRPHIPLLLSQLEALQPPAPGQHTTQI

[22] = molecular target: Serine/threonine-protein kinase BRSK2 (Homo sapiens) (UniProt Q8IWQ3); settings: Compound concentration 1000.0 nM
[23] = molecular target: Phosphatidylinositol 5-phosphate 4-kinase type-2 beta (Homo sapiens) (UniProt P78356); settings: Compound concentration 1000.0 nM
[24] = molecular target: Protein kinase C eta type (Homo sapiens) (UniProt P24723); settings: Compound concentration 1000.0 nM
Chain of Protein kinase C eta type (Homo sapiens) (P24723 whole entry): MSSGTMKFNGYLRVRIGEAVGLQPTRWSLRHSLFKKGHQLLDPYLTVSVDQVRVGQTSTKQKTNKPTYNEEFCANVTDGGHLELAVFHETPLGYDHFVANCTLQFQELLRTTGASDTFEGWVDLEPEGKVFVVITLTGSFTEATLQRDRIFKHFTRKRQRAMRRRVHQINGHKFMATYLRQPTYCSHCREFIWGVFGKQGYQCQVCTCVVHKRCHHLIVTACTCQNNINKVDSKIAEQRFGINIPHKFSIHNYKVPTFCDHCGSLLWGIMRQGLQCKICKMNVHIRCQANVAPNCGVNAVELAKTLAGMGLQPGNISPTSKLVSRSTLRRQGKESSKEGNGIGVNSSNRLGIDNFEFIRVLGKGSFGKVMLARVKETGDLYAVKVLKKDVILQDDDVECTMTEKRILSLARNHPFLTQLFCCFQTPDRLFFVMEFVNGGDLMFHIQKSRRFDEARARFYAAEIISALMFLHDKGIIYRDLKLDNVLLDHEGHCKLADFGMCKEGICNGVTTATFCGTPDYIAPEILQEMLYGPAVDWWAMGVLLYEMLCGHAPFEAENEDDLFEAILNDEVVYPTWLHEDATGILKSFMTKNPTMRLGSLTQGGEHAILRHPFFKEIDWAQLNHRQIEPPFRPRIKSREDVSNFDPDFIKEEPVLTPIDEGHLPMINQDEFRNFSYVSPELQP

[25] = molecular target: Ribosomal protein S6 kinase alpha-2 (Homo sapiens) (UniProt Q15349); settings: Compound concentration 1000.0 nM
[26] = molecular target: Activin receptor type-1B (Homo sapiens) (UniProt P36896); settings: Compound concentration 1000.0 nM
Chain of Activin receptor type-1B (Homo sapiens) (P36896 whole entry): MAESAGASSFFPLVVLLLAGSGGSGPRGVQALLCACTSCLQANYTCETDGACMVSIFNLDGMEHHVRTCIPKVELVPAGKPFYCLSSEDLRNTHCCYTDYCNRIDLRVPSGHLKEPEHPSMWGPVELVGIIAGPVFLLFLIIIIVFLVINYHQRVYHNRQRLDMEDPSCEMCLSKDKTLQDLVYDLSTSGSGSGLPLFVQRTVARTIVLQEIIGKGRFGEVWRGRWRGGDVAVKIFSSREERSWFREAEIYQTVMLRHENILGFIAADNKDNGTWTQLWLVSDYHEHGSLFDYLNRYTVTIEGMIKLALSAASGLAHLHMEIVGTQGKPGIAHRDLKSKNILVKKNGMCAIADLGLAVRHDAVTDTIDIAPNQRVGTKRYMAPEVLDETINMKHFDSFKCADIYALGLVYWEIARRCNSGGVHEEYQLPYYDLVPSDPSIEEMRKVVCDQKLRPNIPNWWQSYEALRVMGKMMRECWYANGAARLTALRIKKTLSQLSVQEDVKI

[27] = molecular target: T2, 5-hydroxytryptamine receptor 2B; assay: GPCRScan assay: inhibition of 5-HT2B; set-up: radioligand conc. used [nm] 1.0 – 2.0, parental cells stable HEK
[28] = molecular target: Tyrosine-protein kinase JAK1 (Homo sapiens) (UniProt P23458); settings: Compound concentration 1000.0 nM
[29] = molecular target: Serine/threonine-protein kinase PAK 5 (Homo sapiens) (UniProt Q9P286); settings: Compound concentration 1000.0 nM
[30] = molecular target: Mitogen-activated protein kinase kinase kinase 19 (Homo sapiens) (UniProt Q56UN5); settings: Compound concentration 1000.0 nM
[31] = molecular target: 5-hydroxytryptamine receptor 5A (Homo sapiens, UniProt P47898); settings: Compound concentration 10.0 uM
[32] = molecular target: Serine/threonine-protein kinase LATS2 (Homo sapiens) (UniProt Q9NRM7); settings: Compound concentration 1000.0 nM
[33] = molecular target: Focal adhesion kinase 1 (Homo sapiens) (UniProt Q05397); settings: Compound concentration 1000.0 nM
[34] = molecular target: Serine/threonine-protein kinase PknB (Mycobacterium tuberculosis) (UniProt P9WI81); settings: Compound concentration 1000.0 nM
[35] = molecular target: Transient receptor potential cation channel subfamily M member 6 (Homo sapiens) (UniProt Q9BX84); settings: Compound concentration 1000.0 nM

Chain of Serine/threonine-protein kinase D1 (Homo sapiens) (Q15139 whole entry, the tested form may be a part): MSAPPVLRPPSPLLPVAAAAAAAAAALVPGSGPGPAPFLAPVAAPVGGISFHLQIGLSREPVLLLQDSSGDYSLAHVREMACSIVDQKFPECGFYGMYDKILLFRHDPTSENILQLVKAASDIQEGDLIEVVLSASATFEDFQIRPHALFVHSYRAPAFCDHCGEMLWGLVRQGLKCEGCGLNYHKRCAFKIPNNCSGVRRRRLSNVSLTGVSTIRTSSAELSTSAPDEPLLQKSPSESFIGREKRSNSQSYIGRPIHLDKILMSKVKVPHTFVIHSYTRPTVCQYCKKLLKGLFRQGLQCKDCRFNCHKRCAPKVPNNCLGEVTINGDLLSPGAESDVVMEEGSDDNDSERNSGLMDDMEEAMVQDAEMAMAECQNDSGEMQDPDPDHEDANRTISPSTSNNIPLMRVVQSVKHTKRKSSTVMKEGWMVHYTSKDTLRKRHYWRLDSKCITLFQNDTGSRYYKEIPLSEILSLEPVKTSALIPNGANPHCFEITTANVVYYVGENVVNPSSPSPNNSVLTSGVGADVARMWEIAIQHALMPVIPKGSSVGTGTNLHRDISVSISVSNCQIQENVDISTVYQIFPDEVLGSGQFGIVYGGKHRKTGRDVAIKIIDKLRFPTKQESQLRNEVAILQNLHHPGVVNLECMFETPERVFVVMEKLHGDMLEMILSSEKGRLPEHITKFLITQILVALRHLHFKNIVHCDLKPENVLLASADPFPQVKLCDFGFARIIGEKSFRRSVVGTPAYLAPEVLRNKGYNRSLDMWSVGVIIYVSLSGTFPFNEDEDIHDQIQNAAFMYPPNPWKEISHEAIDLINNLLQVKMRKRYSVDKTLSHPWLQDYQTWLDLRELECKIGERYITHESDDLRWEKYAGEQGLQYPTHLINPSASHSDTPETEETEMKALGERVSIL

| SMILES | residual activity [1] [%] | residual activity [2] [%] | residual activity [3] [%] | Ki ([4]; read-out: Ki) [µM] | Ki ([4]; read-out: pKi (converted)) [µM] | residual activity [5] [%] | residual activity [6] [%] | residual activity [7] [%] | residual activity [8] [%] | residual activity [9] [%] | inhibition [10] [%] | residual activity [11] [%] | residual activity [12] [%] | residual activity [13] [%] | residual activity [14] [%] | residual activity [15] [%] | residual activity [16] [%] | residual activity [17] [%] | residual activity [18] [%] | residual activity [19] [%] | further results |
| --- | --- | --- | --- | --- | --- | --- | --- | --- | --- | --- | --- | --- | --- | --- | --- | --- | --- | --- | --- | --- | --- |
| CNCc1ccccc1-c1csc([C@H](C)Nc2nc(C)nc3cc(OC)c(OC)cc23)c1 [BAY-294] | 90 | 100 | 100 | 0.706 | 0.692 | 100 | 99 | 100 | 100 | 75 | 97.3 | 100 | 78 | 100 | 100 | 87 | 100 | 100 | 100 | 100 | residual activity [20]: 81%; residual activity [21]: 100%; residual activity [22]: 100%; residual activity [23]: 100%; residual activity [24]: 100%; residual activity [25]: 100%; residual activity [26]: 100%; Ki [27]: 0.0746 µM; residual activity [28]: 89%; residual activity [29]: 100%; residual activity [30]: 78%; inhibition [31]: 78.1%; residual activity [32]: 95%; residual activity [33]: 92%; residual activity [34]: 90%; residual activity [35]: 100% |
| CNCc1ccccc1-c1csc([C@@H](C)Nc2nc(C)nc3cc(OC)c(OC)cc23)c1 [BAY-293] | 97 | 90 | 59 | 3.4 | 2.88 | 100 | 72 | 76 | 97 | 70 | 86.9 | 100 | 76 | 97 | 84 | 87 | 100 | 79 | 93 | 99 | residual activity [20]: 66%; residual activity [21]: 97%; residual activity [22]: 100%; residual activity [23]: 100%; residual activity [24]: 100%; residual activity [25]: 100%; residual activity [26]: 91%; Ki [27]: 0.623 µM; residual activity [28]: 100%; residual activity [29]: 95%; residual activity [30]: 71%; inhibition [31]: 68.5%; residual activity [32]: 98%; residual activity [33]: 86%; residual activity [34]: 76%; residual activity [35]: 91% |
